According to ChEMBL document CHEMBL5113402, “Inhibition of cytochrome P450 monooxygenase-catalyzed oxylipin formation by flavonoids: Evaluation of structure-activity relationship towards CYP4F2-selective inhibitors” (Eur J Med Chem, 2022):
In brackets after ≈: the same amount, converted by molar mass.

How the values were obtained:
[1] = target: T1, CYP4A11 (Homo sapiens, UniProt Q02928); assay: Inhibition of recombinant human CYP4A11 expressed in baculovirus-infected insect cells at 50 uM incubated for 15 mins in presence of arachidonic acid and NADPH by jump-dilution assay relative to control; format: ADME; settings: probe arachidonic acid
T1 sequence (Q02928 whole entry): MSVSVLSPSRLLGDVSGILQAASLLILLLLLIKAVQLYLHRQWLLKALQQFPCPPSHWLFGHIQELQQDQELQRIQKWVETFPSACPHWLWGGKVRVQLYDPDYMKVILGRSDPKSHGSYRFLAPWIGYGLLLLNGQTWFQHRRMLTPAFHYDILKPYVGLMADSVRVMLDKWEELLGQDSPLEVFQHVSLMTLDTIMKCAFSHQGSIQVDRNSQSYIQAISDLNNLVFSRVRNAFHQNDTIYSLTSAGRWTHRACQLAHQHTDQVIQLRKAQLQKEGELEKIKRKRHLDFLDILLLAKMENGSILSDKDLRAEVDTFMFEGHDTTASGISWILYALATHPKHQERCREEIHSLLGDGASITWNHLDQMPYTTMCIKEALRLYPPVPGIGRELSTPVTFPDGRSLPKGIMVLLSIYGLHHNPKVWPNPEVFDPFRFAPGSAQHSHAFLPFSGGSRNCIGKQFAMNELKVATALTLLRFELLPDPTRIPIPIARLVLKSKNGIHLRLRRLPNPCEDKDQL

[2] = target: T2, Cytochrome P450 4F2 (Homo sapiens, UniProt P78329); assay: Inhibition of recombinant human CYP4F2 expressed in baculovirus-infected insect cells in presence of arachidonic acid and NADPH incubated for 15 mins by jump-dilution assay relative to control; format: ADME
T2 sequence (P78329 whole entry): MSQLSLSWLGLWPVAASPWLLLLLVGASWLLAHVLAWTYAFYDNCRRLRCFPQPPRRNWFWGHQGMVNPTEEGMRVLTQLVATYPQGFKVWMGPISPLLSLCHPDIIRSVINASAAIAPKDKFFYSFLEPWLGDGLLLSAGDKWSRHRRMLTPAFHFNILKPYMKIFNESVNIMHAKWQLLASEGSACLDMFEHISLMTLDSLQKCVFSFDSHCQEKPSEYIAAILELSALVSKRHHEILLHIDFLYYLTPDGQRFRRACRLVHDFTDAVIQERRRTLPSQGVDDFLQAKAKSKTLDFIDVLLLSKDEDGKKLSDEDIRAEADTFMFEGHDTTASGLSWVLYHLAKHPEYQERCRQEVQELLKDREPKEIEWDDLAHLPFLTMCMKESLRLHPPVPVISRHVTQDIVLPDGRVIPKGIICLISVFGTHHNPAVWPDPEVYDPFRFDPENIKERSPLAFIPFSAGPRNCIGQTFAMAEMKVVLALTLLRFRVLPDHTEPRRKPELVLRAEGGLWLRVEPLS

[3] = Apparent permeability of the compound in human Caco-2 cells; format: ADME, cell-based
[4] = target: T3, Cytochrome P450 2J2 (Homo sapiens, UniProt P51589); assay: Inhibition of recombinant human CYP2J2 expressed in baculovirus-infected insect cells in presence of arachidonic acid and NADPH incubated for 15 mins by jump-dilution assay relative to control; format: ADME
T3 sequence (P51589 whole entry): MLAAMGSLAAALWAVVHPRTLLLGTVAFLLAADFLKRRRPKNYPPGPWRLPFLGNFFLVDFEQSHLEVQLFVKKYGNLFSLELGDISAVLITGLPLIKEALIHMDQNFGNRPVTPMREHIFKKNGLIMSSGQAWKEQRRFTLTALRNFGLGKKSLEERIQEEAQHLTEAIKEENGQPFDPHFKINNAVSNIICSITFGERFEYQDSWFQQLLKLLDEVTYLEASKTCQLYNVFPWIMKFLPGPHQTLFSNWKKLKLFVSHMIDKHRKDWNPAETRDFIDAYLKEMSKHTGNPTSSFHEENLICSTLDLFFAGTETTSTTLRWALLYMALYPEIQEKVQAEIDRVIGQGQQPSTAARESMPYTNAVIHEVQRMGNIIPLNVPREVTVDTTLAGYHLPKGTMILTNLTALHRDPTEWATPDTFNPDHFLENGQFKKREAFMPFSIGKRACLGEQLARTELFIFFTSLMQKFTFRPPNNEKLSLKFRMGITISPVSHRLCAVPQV

[5] = target: T4, CYP450 (20-HETE formation) (Homo sapiens, UniProt P04798+P05177+P05181+P08684+P10632+P10635+P11509+P11712+P13584+P20813+P20815+P20853+P24462+P24903+P33260+P33261+P51589+P78329+P98187+Q02928+Q08477+Q16678+Q16696+Q5TCH4+Q6VVX0+Q7Z449+Q8TAV3+Q96SQ9+Q9HB55); assay: Inhibition of CYP450 in human liver microsomes assessed as inhibition of 20-HETE formation in presence of arachidonic acid and NADPH by multi-enzyme assay based LC-MS/MS analysis relative to control; format: ADME, Microsome; settings: probe arachidonic acid
[6] = target: T5, CYP2J2 (Homo sapiens, UniProt P51589); assay: Inhibition of recombinant human CYP2J2 expressed in baculovirus-infected insect cells at 50 uM incubated for 15 mins in presence of arachidonic acid and NADPH by jump-dilution assay relative to control; format: ADME; settings: probe arachidonic acid
T5 sequence (P51589 whole entry): T3 sequence (P51589 whole entry)

[7] = target: T4, CYP450 (20-HETE formation); assay: Inhibition of CYP450 in human liver microsomes assessed as inhibition of 20-HETE formation at 10 uM in presence of arachidonic acid and NADPH by multi-enzyme assay based LC-MS/MS analysis relative to control; format: ADME, Microsome; settings: probe arachidonic acid
[8] = species: Homo sapiens; assay: Selectivity index, log ratio of Inhibition of CYP450 in human liver microsomes assessed as inhibition of EpETrE formation in presence of arachidonic acid to Inhibition of CYP450 in human liver microsomes assessed as inhibition of 20-HETE formation in presence of arachidonic acid
[9] = Inhibition of CYP450 in Sprague-Dawley rat liver microsomes assessed as inhibition of 20-HETE formation in presence of arachidonic acid and NADPH by multi-enzyme assay based LC-MS/MS analysis relative to control; format: ADME, Microsome
[10] = Drug recovery in human liver microsomes assessed as NADPH-fortified oxidative metabolism recovery in presence of arachidonic acid incubated for 30 mins; format: ADME, Microsome; settings: read-out: Drug recovery
[11] = Inhibition of CYP450 in Sprague-Dawley rat liver microsomes assessed as inhibition of 20-HETE formation in presence of arachidonic acid and NADPH by multi-enzyme assay based LC-MS/MS analysis; format: ADME, Microsome
[12] = Drug recovery in human liver microsomes assessed as UDPGA-fortified conjugation recovery in presence of arachidonic acid incubated for 30 mins; format: ADME, Microsome; settings: read-out: Drug recovery
[13] = Solubility of the compound in phospahte-buffered saline buffer at pH 7.4 by shake flask method; format: physicochemical; settings: phosphate-buffered saline

In the case of `O=c1cc(-c2ccc(C(F)(F)F)cc2)oc2ccccc12`, the inhibition at 0.25 h, 50 µM [1] is reported as < 25%, the IC50 [2] is reported as 760 nM and the Papp [3] is reported as 4.1 ×10⁻⁶ cm/s. The IC50 [4] was 50000 nM, the IC50 [5] was 2800 nM and the inhibition at 0.25 h, 50 µM [6] was < 25%. The inhibition at 10 µM [7] was 53%, the log(ratio) [8] was 0.58 and the IC50 [9] was 1400 nM. For the same compound, the remaining at 0.5 h [10] was 87%, the IC50 [11] was 4300 nM and the remaining at 0.5 h [12] was > 95%. For the same compound, the solubility thermodynamic [13] was 3.4 µM (≈ 0.987 µg/mL).
